# Laboratory results as given in PubChem BioAssay (NCI).
#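 Assay format: 96-well plates, 48-hour exposure. GI50 is the concentration that inhibits growth by half. TGI denotes the concentration required for complete inhibition of growth.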
# How the values were obtained:
# Assay in all cases: NCI-60 cell line screen, 48 h
# BT-549 breast = system: BT-549 breast
# SK-MEL-5 melanoma = system: SK-MEL-5 melanoma
# MDA-MB-435 = system: MDA-MB-435
# NCI-H23 lung = system: NCI-H23 lung
# MDA-MB-231 breast = system: MDA-MB-231 breast
# HCT-116 colon = system: HCT-116 colon
# SNB-75 CNS = system: SNB-75 CNS
# M14 melanoma = system: M14 melanoma
# OVCAR-3 ovarian = system: OVCAR-3 ovarian
# DU-145 prostate = system: DU-145 prostate
# UACC-62 melanoma = system: UACC-62 melanoma
# KM12 colon = system: KM12 colon
# MCF7 breast = system: MCF7 breast
# SK-MEL-2 melanoma = system: SK-MEL-2 melanoma
# SF-539 CNS = system: SF-539 CNS
# SR leukemia = system: SR leukemia
# HS 578T breast = system: HS 578T breast
# HT29 colon = system: HT29 colon
# UO-31 renal = system: UO-31 renal
# CAKI-1 renal = system: CAKI-1 renal
# NCI-H460 lung = system: NCI-H460 lung
# NCI-H226 lung = system: NCI-H226 lung
# NCI/ADR-RES ovarian = system: NCI/ADR-RES ovarian
# OVCAR-8 ovarian = system: OVCAR-8 ovarian
# A498 renal = system: A498 renal
# 786-0 renal = system: 786-0 renal
# HL-60(TB) leukemia = system: HL-60(TB) leukemia
# LOX IMVI melanoma = system: LOX IMVI melanoma
# SN12C renal = system: SN12C renal
# HOP-92 NSCLC = system: HOP-92 NSCLC
# ACHN renal = system: ACHN renal
# SW-620 colon = system: SW-620 colon
# OVCAR-4 ovarian = system: OVCAR-4 ovarian
# K-562 leukemia = system: K-562 leukemia
# U251 CNS = system: U251 CNS
# IGROV1 ovarian = system: IGROV1 ovarian
# A549 NSCLC = system: A549 NSCLC
# RPMI-8226 leukemia = system: RPMI-8226 leukemia
# EKVX NSCLC = system: EKVX NSCLC
# SK-MEL-28 melanoma = system: SK-MEL-28 melanoma
# HCT-15 colon = system: HCT-15 colon
# RXF 393 renal = system: RXF 393 renal
# HOP-62 NSCLC = system: HOP-62 NSCLC
# NCI-H522 lung = system: NCI-H522 lung
# SF-295 CNS = system: SF-295 CNS
# UACC-257 melanoma = system: UACC-257 melanoma
# PC-3 prostate = system: PC-3 prostate
# HCC-2998 colon = system: HCC-2998 colon
# MALME-3M melanoma = system: MALME-3M melanoma
# OVCAR-5 ovarian = system: OVCAR-5 ovarian
# CCRF-CEM leukemia = system: CCRF-CEM leukemia
# SF-268 CNS = system: SF-268 CNS
# COLO 205 colon = system: COLO 205 colon
smiles,measurement,setting,value
COC(=O)c1c2c(c(C)[n+]([O-])c1C)C(=O)C(NCc1ccc(O)cc1)=CC2=O,GI50,BT-549 breast,1430 nM
same,TGI,BT-549 breast,2910 nM
same,GI50,SK-MEL-5 melanoma,1270 nM
same,TGI,SK-MEL-5 melanoma,2590 nM
same,GI50,MDA-MB-435,1680 nM
same,TGI,MDA-MB-435,3.19 µM
same,GI50,NCI-H23 lung,1430 nM
same,TGI,NCI-H23 lung,3.5 µM
same,GI50,MDA-MB-231 breast,1380 nM
same,TGI,MDA-MB-231 breast,4.34 µM
same,GI50,HCT-116 colon,333 nM
same,TGI,HCT-116 colon,1240 nM
same,GI50,SNB-75 CNS,1670 nM
same,TGI,SNB-75 CNS,3.06 µM
same,GI50,M14 melanoma,1550 nM
same,TGI,M14 melanoma,3.12 µM
same,GI50,OVCAR-3 ovarian,266 nM
same,TGI,OVCAR-3 ovarian,820 nM
same,GI50,DU-145 prostate,1750 nM
same,TGI,DU-145 prostate,3.19 µM
same,GI50,UACC-62 melanoma,1360 nM
same,TGI,UACC-62 melanoma,2970 nM
same,GI50,KM12 colon,1700 nM
same,TGI,KM12 colon,4.1 µM
same,GI50,MCF7 breast,416 nM
same,TGI,MCF7 breast,2000 nM
same,GI50,SK-MEL-2 melanoma,1790 nM
same,TGI,SK-MEL-2 melanoma,3.72 µM
same,GI50,SF-539 CNS,1680 nM
same,TGI,SF-539 CNS,3.07 µM
same,GI50,SR leukemia,1830 nM
same,TGI,SR leukemia,6.51 µM
same,GI50,HS 578T breast,2300 nM
same,TGI,HS 578T breast,6.98 µM
same,GI50,HT29 colon,715 nM
same,TGI,HT29 colon,4.84 µM
same,GI50,UO-31 renal,1530 nM
same,TGI,UO-31 renal,3.06 µM
same,GI50,CAKI-1 renal,1690 nM
same,TGI,CAKI-1 renal,4.26 µM
same,GI50,NCI-H460 lung,1580 nM
same,TGI,NCI-H460 lung,3.35 µM
same,GI50,NCI-H226 lung,2060 nM
same,TGI,NCI-H226 lung,4.36 µM
same,GI50,NCI/ADR-RES ovarian,2200 nM
same,TGI,NCI/ADR-RES ovarian,6.37 µM
same,GI50,OVCAR-8 ovarian,1080 nM
same,TGI,OVCAR-8 ovarian,6.47 µM
same,GI50,A498 renal,1310 nM
same,TGI,A498 renal,2920 nM
same,GI50,786-0 renal,2110 nM
same,TGI,786-0 renal,4.87 µM
same,GI50,HL-60(TB) leukemia,2460 nM
same,TGI,HL-60(TB) leukemia,5.69 µM
same,GI50,LOX IMVI melanoma,938 nM
same,TGI,LOX IMVI melanoma,2240 nM
same,GI50,SN12C renal,1230 nM
same,TGI,SN12C renal,2560 nM
same,GI50,HOP-92 NSCLC,2520 nM
same,TGI,HOP-92 NSCLC,5.12 µM
same,GI50,ACHN renal,1700 nM
same,TGI,ACHN renal,3.22 µM
same,GI50,SW-620 colon,934 nM
same,TGI,SW-620 colon,2720 nM
same,GI50,OVCAR-4 ovarian,1030 nM
same,TGI,OVCAR-4 ovarian,2230 nM
same,GI50,K-562 leukemia,1630 nM
same,TGI,K-562 leukemia,7.39 µM
same,GI50,U251 CNS,1770 nM
same,TGI,U251 CNS,5.26 µM
same,GI50,IGROV1 ovarian,1590 nM
same,TGI,IGROV1 ovarian,3.78 µM
same,GI50,A549 NSCLC,1930 nM
same,TGI,A549 NSCLC,4.6 µM
same,GI50,RPMI-8226 leukemia,1780 nM
same,TGI,RPMI-8226 leukemia,4.18 µM
same,GI50,EKVX NSCLC,1730 nM
same,TGI,EKVX NSCLC,3.34 µM
same,GI50,SK-MEL-28 melanoma,2260 nM
same,TGI,SK-MEL-28 melanoma,4.36 µM
same,GI50,HCT-15 colon,1430 nM
same,TGI,HCT-15 colon,3.18 µM
same,GI50,RXF 393 renal,1500 nM
same,TGI,RXF 393 renal,2980 nM
same,GI50,HOP-62 NSCLC,1960 nM
same,TGI,HOP-62 NSCLC,4.57 µM
same,GI50,NCI-H522 lung,1430 nM
same,TGI,NCI-H522 lung,3.49 µM
same,GI50,SF-295 CNS,1670 nM
same,TGI,SF-295 CNS,3.17 µM
same,GI50,UACC-257 melanoma,556 nM
same,TGI,UACC-257 melanoma,1970 nM
same,GI50,PC-3 prostate,2000 nM
same,TGI,PC-3 prostate,6.55 µM
same,GI50,HCC-2998 colon,1460 nM
same,TGI,HCC-2998 colon,3.23 µM
same,GI50,MALME-3M melanoma,256 nM
same,TGI,MALME-3M melanoma,930 nM
same,GI50,OVCAR-5 ovarian,1770 nM
same,TGI,OVCAR-5 ovarian,3.36 µM
same,GI50,CCRF-CEM leukemia,1600 nM
same,TGI,CCRF-CEM leukemia,4.35 µM
same,GI50,SF-268 CNS,1640 nM
same,TGI,SF-268 CNS,3.53 µM
same,GI50,COLO 205 colon,579 nM
same,TGI,COLO 205 colon,2190 nM
